Assays:
[1] = target: T1, BTK (Homo sapiens (Human), UniProt Q06187); assay: BTK inhibition assay by Reaction Biology Corporation (33P-ATP, filter-binding); format: biochemical; details: footnote a: from Reaction Biology Corporation
Experimental: (§1) BTK inhibition Assay and selectivity Assay The assay was conducted either a by a third party (Reaction Biology Corporation, PA, USA) or in house.
a) Reagent and Procedure by Reaction Biology Corporation:
Base Reaction buffer; 20 mM Hepes (pH 7.5), 10 mM MgCl2, 1 mM EGTA, 0.02%. Brij35, 0.02 mg/ml BSA, 0.1 mM Na3VO4, 2 mM DTT, 1% DMSO. Required cofactors were added individually to each kinase reaction. Compound handling: testing compounds were dissolved in 100% DMSO to specific concentration. The serial dilution was conducted by Integra Viaflo Assist in DMSO.
The substrate was prepared in freshly prepared reaction buffer of above and required cofactors were added to the substrate solution. The kinase was delivered to the substrate solution and the mixture was gently mixed. Testing compounds in 100% DMSO was added to the kinase reaction mixture by Acoustic technology (Echo550; nanoliter range) and the new mixture was incubated for 20 min at room temperature. Then ^33P-ATP (Specific activity 10 μCi/μl) was added to the reaction mixture to initiate the reaction and the mixture was incubated for 2 hours at room temperature. The radioactivity was detected by filter-binding method and the kinase activity data was expressed as the percent of remaining kinase activity in test sample compared to vehicle (dimethyl sulfoxide) reaction. IC50 values and curve fits were obtained using Prism (GraphPad Software). The result is outlined in Table-I

[2] = target: T1, BTK; assay: In house ELISA kinase inhibition assay, BTK; format: biochemical; details: footnote b: from in house procedure (ELISA)
Experimental: as §1
b) In House Procedure for BTK, BMX, EGFR and ITK:
Kinase inhibitory activities of compounds were evaluated using the Enzyme-linked immunosorbent assay (ELISA). The kinase enzyme of BTK, BMX, EGFR and ITK were purchased from Carna Bioscience (Kobe, Japan). A total of 10 ng/mL antiphosphotyrosine (PY713) antibody (abcam, Cambridge Science Park, UK) was precoated in 96-well ELISA plates. The kinase enzymes in each reaction well were set to BTK (101.25 ng/mL), BMX (90 ng/mL), EGFR (90 ng/mL) or ITK (120 ng/mL) and incubated with indicated drugs in 1× reaction buffer (50 mmol/L HEPES pH 7.4, 20 mmol/L MgCl2, 0.1 mmol/L MnCl2, 1 mmol/L DTT) containing 20 μmol/L (the final concentration of substrate in ITK reaction was 30 μmol/L) substrate (NH2-[…]-biotin) at 25° C. for 1 h. Then, a total of 3 μmol/L ATP was added and the reaction was continued for 2 h. The products of reaction were transferred into 96-well ELISA plates containing antibody and incubated at 25° C. for 30 min. After incubation, the wells were washed with PBS and then incubated with horseradish peroxidase (HRP)-conjugated streptavidin. The wells were visualized using 3,3′,5,5′-tetramethylbenzidine (TMB), and chromogenic reaction was ended with 2 mol/L H2SO4, the absorbance was read with a multimode plate reader (PerkinElmer, USA) at 450 nm. IC50 values and curve fits were obtained using Prism (GraphPad Software). (Table I-IV)

[3] = tested on: TMD-8; assay: In-vitro antitumor activity assay (CellTiter-Glo cell antiproliferative activity); format: cell-based; details: Homo sapiens, TMD8, TMD-8 cells, 72 h
Experimental: In-Vitro Antitumor Activity Assay
Method: Reagent and procedure by Hefei PreceDo pharmaceuticals Co. Ltd.
Cell antiproliferative activity was evaluated by the CellTiter-Glo (Promega, USA) assay. Make 1000× compounds solution in DMSO, add 1 μl 1000× compounds to […] growth medium to make 20× compounds. Dilute cell suspensions in growth medium to desired density and 95 μl were taken to 96-well plate. Add 5 μl 20× compounds into 96-well plate according to the plate map. Final DMSO concentration in each well was 0.1%. Then the cell was incubated at 37° C., 5% CO2 for 72 h. Equilibrate the assay plate to room temperature before measurement. Add 20 μl of CellTiter-Glo© Reagent into each well. Mix contents for 2 minutes on an orbital shaker to induce cell lysis. Incubate at room temperature for 10 minutes to stabilize luminescent signal. Record luminescence using EnVision Multilabel Reader (PerkinElmer). Cell viability (CV %) was calculated relative to vehicle (DMSO) treated control wells using following formula: Cell viability (%)=(RLU compound−RLU blank)/(RLU control−RLU blank)*100%. The IC50 values were calculated using GraphPad Prism 6.0 software, fitting to a 4-parameter equation to generate concentration response curves. All assays were conducted with three parallel samples and three repetitions.

T1 sequence (Q06187 whole entry): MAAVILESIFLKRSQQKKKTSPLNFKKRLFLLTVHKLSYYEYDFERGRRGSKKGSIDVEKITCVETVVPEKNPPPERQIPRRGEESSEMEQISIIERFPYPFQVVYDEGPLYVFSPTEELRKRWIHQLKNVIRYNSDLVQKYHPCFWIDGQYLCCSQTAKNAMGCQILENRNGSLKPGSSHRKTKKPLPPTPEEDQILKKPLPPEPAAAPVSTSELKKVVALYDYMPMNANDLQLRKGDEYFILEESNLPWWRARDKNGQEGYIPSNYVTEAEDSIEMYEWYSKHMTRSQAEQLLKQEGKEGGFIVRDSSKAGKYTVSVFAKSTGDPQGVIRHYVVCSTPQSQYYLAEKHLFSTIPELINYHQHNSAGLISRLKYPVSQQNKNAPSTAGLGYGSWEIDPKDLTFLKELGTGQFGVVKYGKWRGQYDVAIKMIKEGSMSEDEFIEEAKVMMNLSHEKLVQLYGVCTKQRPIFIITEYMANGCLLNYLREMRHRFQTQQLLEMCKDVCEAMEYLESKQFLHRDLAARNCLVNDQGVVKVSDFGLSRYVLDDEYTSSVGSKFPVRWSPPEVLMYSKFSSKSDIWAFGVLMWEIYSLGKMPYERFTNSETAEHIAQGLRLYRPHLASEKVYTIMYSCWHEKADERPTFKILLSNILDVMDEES

SMILES	IC50 [1] [nM]	IC50 [2] [nM]	IC50 [3] [nM]
C=CC(=O)N1CCC[C@H]1c1nc(-c2ccc(C(=O)Nc3ccccn3)cc2)c(C(N)=O)n1N [Example 1, (S)-2-(1-acryloylpyrrolidin-2-yl)-1-amino-4-(4-(pyridin-2-yl-carbamoyl)phenyl)-1H-imidazole-5-carboxamide]	131	176	
C=CC(=O)N1CCCC[C@H]1c1nc(-c2ccc(C(=O)Nc3cc(C(C)C)ccn3)cc2)c(C(N)=O)n1N [Example 71, (S)-2-(1-acryloylpiperidin-2-yl)-1-amino-4-(4-((4-isopropylpyridin-2-yl)carbamoyl)phenyl)-1H-imidazole-5-carboxamide]	55.1	22.6	
C#CC(=O)N1CCC[C@H]1c1nc(-c2ccc(C(=O)Nc3cc(C)ccn3)cc2)c(C(N)=O)n1N [Example 17, (S)-1-amino-4-(4-((4-methylpyridin-2-yl)carbamoyl)phenyl)-2-(1-propioloylpyrrolidin-2-yl)-1H-imidazole-5-carboxamide]	24.4	30.3	
C=CC(=O)N1CCCC[C@H]1c1nc(-c2ccc(C(=O)Nc3ccccn3)cc2)c(C(N)=O)n1N [Example 46, (S)-2-(1-acryloylpiperidin-2-yl)-1-amino-4-(4-(pyridin-2-ylcarbamoyl)phenyl)-1H-imidazole-5-carboxamide]	44.6	13.1	
CC#CC(=O)N1CCC[C@H]1c1nc(-c2ccc(C(=O)Nc3cc(C)ccn3)cc2)c(C(N)=O)n1N [Example 18, (S)-1-amino-2-(1-(but-2-ynoyl)pyrrolidin-2-yl)-4-(4-((4-methylpyridin-2-yl)carbamoyl)phenyl)-1H-imidazole-5-carboxamide]	7200	3080	
CC#CC(=O)N1CCCC[C@H]1c1nc(-c2ccc(C(=O)Nc3cc(Br)ccn3)cc2)c(C(N)=O)n1N [Example 88, (S)-1-amino-4-(4-((4-bromopyridin-2-yl)carbamoyl)phenyl)-2-(1-(but-2-ynoyl)piperidin-2-yl)-1H-imidazole-5-carboxamide]	22.6		
C=CC(=O)N1CCCC[C@H]1c1nc(-c2ccc(C(=O)Nc3ccc(Cl)cn3)cc2)c(C(N)=O)n1N [Example 86, (S)-2-(1-acryloylpiperidin-2-yl)-1-amino-4-(4-((5-chloropyridin-2-yl)carbamoyl)phenyl)-1H-imidazole-5-carboxamide]	29.2		
C=CC(=O)N1CCCC[C@H]1c1nc(-c2ccc(C(=O)Nc3nccs3)cc2)c(C(N)=O)n1N [Example 105, (S)-2-(1-acryloylpiperidin-2-yl)-1-amino-4-(4-(thiazol-2-ylcarbamoyl)phenyl)-1H-imidazole-5-carboxamide]	18.7		
C=CC(=O)N1CCC[C@@H](c2nc(-c3ccc(C(=O)Nc4cc(CC)ccn4)cc3)c(C(N)=O)n2N)C1 [Example 93, (R)-2-(1-acryloylpiperidin-3-yl)-1-amino-4-(4-((4-ethylpyridin-2-yl)carbamoyl)phenyl)-1H-imidazole-5-carboxamide]	14.6		
N#CN1CCC[C@H]1c1nc(-c2ccc(C(=O)Nc3ccccn3)cc2)c(C(N)=O)n1N [Example 9, (S)-1-amino-2-(1-cyanopyrrolidin-2-yl)-4-(4-(pyridin-2-ylcarbamoyl)phenyl)-1H-imidazole-5-carboxamide]	5920		
CCc1ccnc(NC(=O)c2ccc(-c3nc([C@@H]4CCCN4C(=O)C=C(C)C)n(N)c3C(N)=O)cc2)c1 [Example 37, (S)-1-amino-4-(4-((4-ethylpyridin-2-yl)carbamoyl)phenyl)-2-(1-(3-methylbut-2-enoyl)pyrrolidin-2-yl)-1H-imidazole-5-carboxamide]	2210		
C#CC(=O)N1CCC[C@H]1c1nc(-c2ccc(C(=O)Nc3ccccn3)cc2)c(C(N)=O)n1N [Example 7, (S)-1-amino-2-(1-propioloylpyrrolidin-2-yl)-4-(4-(pyridin-2-ylcarbamoyl)phenyl)-1H-imidazole-5-carboxamide]	85		

Stronger by IC50 [1], values ahead:

IC50 [1] [nM]	IC50 [2] [nM]	IC50 [3] [nM]	SMILES
12.5	18.4		C#CC(=O)N1CCC[C@H]1c1nc(-c2ccc(C(=O)Nc3ccc(C)cn3)cc2)c(C(N)=O)n1N [Example 26, (S)-1-amino-4-(4-((5-methylpyridin-2-yl)carbamoyl)phenyl)-2-(1-propioloylpyrrolidin-2-yl)-1H-imidazole-5-carboxamide]
4.97			C=CC(=O)N1CCCC[C@H]1c1nc(-c2ccc(C(=O)Nc3cc(-c4ccc(F)cc4)ccn3)cc2)c(C(N)=O)n1N [Example 91, (S)-2-(1-acryloylpiperidin-2-yl)-1-amino-4-(4-((4-(4-fluorophenyl)pyridin-2-yl)carbamoyl)phenyl)-1H-imidazole-5-carboxamide]
10.1	11.2	19	C=CC(=O)N1CCCC[C@H]1c1nc(-c2ccc(C(=O)Nc3cc(Cl)ccn3)cc2)c(C(N)=O)n1N [Example 72, (S)-2-(1-acryloylpiperidin-2-yl)-1-amino-4-(4-((4-chloropyridin-2-yl)carbamoyl)phenyl)-1H-imidazole-5-carboxamide]
11			C=CC(=O)N1CCCC[C@H]1c1nc(-c2ccc(C(=O)Nc3cc(CC)ccn3)cc2)c(C(N)=O)n1NC [Example 81, (S)-2-(1-acryloylpiperidin-2-yl)-4-(4-((4-ethylpyridin-2-yl)carbamoyl)phenyl)-1-(methylamino)-1H-imidazole-5-carboxamide]
4.38			C=CC(=O)N1CCCC[C@H]1c1nc(-c2ccc(C(=O)Nc3cc(Br)ccn3)cc2)c(C(N)=O)n1N [Example 87, (S)-2-(1-acryloylpiperidin-2-yl)-1-amino-4-(4-((4-bromopyridin-2-yl)carbamoyl)phenyl)-1H-imidazole-5-carboxamide]
6.12			C=CC(=O)N1CCCC[C@H]1c1nc(-c2ccc(C(=O)Nc3cc(I)ccn3)cc2)c(C(N)=O)n1N [Example 89, (S)-2-(1-acryloylpiperidin-2-yl)-1-amino-4-(4-((4-iodopyridin-2-yl)carbamoyl)phenyl)-1H-imidazole-5-carboxamide]
9.68			C=CC(=O)N1CCCC[C@H]1c1nc(-c2ccc(C(=O)Nc3cc(CC)ccn3)cc2)c(C(N)=O)n1N [Example 73, (S)-2-(1-acryloylpiperidin-2-yl)-1-amino-4-(4-((4-ethylpyridin-2-yl)carbamoyl)phenyl)-1H-imidazole-5-carboxamide]
13.5			C#CC(=O)N1CCC[C@H]1c1nc(-c2ccc(C(=O)Nc3cc(OC)ccn3)cc2)c(C(N)=O)n1N [Example 33, (S)-1-amino-4-(4-((4-methoxypyridin-2-yl)carbamoyl)phenyl)-2-(1-propioloylpyrrolidin-2-yl)-1H-imidazole-5-carboxamide]

From patent US12291516B2, “Substituted 1-amino-1H-imidazole-5-carboxamide as Bruton's tyrosine kinase inhibitors” (Henan Zhiwei Biomedicine Co., Ltd., priority 2019, dated 2025)
